56 molecules from patent US8097722B2 (priority 2008, dated 2012) can be followed below.

The test system of experiment [1] is brain PMPMEase. The experiment is classed as biochemical, porcine.
Experiment [2] deals with liver PMPMEase. Type of experiment: biochemical, porcine.
Further: test concentration or dose not given here.

`COC(=O)/C=C(\C)OP(=O)(OC)OC` [Phosdrin]: in experiment [1], the “Brain Mean (mean percent inhibition relative to the controls)” value is reported as 67%. For the same molecule, the “Liver Mean (mean percent inhibition relative to the controls)” value in experiment [2] amounted to 70%. The corresponding values for `CCOP(=S)(OCC)SCn1c(=O)oc2cc(Cl)ccc21` [Phosalone] are 62% and 79%. On to `CCOP(=S)(OCC)OP(=S)(OCC)OCC` [Sulfotep], for which the “Brain Mean (mean percent inhibition relative to the controls)” value in experiment [1] came out at 47%. Also, the “Liver Mean (mean percent inhibition relative to the controls)” value in experiment [2] turned out to be 97%. On the same counts, the results for `COP(=S)(OC)Oc1ccc([N+](=O)[O-])c(C)c1` [Fenitrothion] are 75% and 98%. On the same counts, the results for `COP(=S)(OC)Oc1ccc(SC)c(C)c1` [Fenthion] are 17% and 40%.

Turning to Prothiofos, the “Brain Mean (mean percent inhibition relative to the controls)” value in experiment [1] came out at 6%. Also, the “Liver Mean (mean percent inhibition relative to the controls)” value in experiment [2] is reported as 52%. On the same counts, the results for Monocrotophos are 30% and 18%. As to `CCOP(=S)(OCC)Oc1cc(Cl)c(Br)cc1Cl` [Bromophos-E], the “Brain Mean (mean percent inhibition relative to the controls)” value in experiment [1] is listed as 68%. The “Liver Mean (mean percent inhibition relative to the controls)” value in experiment [2] is reported as 76%. On the same counts, the results for `COP(=S)(OC)SCn1nnc2ccccc2c1=O` [Azinphos-M] are 73% and 47%.

As to `CCOP(=S)(OCC)SCCl` [Chlormefos], the “Brain Mean (mean percent inhibition relative to the controls)” value in experiment [1] is listed as 65%. In experiment [2], the “Liver Mean (mean percent inhibition relative to the controls)” value was found to be 86%.

On to `COP(=S)(OC)Oc1cc(Cl)c(Cl)cc1Cl` [Ronnel], for which, in experiment [1], the “Brain Mean (mean percent inhibition relative to the controls)” value is recorded as 45%. Besides, the “Liver Mean (mean percent inhibition relative to the controls)” value in experiment [2] was determined as 93%.

On to `CCOC(=O)CC(SP(=S)(OC)OC)C(=O)OCC` (centres unmarked) [Malathion], for which, in experiment [1], the “Brain Mean (mean percent inhibition relative to the controls)” value turned out to be 51%. The “Liver Mean (mean percent inhibition relative to the controls)” value in experiment [2] turned out to be 53%. On to `COP(=S)(OC)Oc1cc(Cl)c(I)cc1Cl` [Jodfenphos], for which, in experiment [1], the “Brain Mean (mean percent inhibition relative to the controls)” value came out at 69%. For the same molecule, the “Liver Mean (mean percent inhibition relative to the controls)” value in experiment [2] amounted to 96%. On to `CCOC(=O)C(SP(=S)(OC)OC)c1ccccc1` (centres unmarked) [Phenthoate], for which the “Brain Mean (mean percent inhibition relative to the controls)” value in experiment [1] was 55%. The “Liver Mean (mean percent inhibition relative to the controls)” value in experiment [2] is listed as 96%. On the same counts, the results for `COP(=O)(OC)OC=C(Cl)Cl` [Dichlorvos] are 81% and 83%. On the same counts, the results for `CCOP(=S)(OCC)Oc1nc(Cl)c(Cl)cc1Cl` [Chlorpyriphos] are 67% and 100%. Regarding `CCCSP(=S)(OCC)Oc1ccc(Cl)cc1Cl` (centres unmarked) [Tokuthion], in experiment [1], the “Brain Mean (mean percent inhibition relative to the controls)” value is given as 100%. The “Liver Mean (mean percent inhibition relative to the controls)” value in experiment [2] was 76%. On the same counts, the results for `CCOP(=S)(OCC)ON=C(C#N)c1ccccc1Cl` [Chlorphoxim] are 55% and 100%. Turning to `CCOP(=S)(OCC)SCCSCC` [Disulfoton], the “Brain Mean (mean percent inhibition relative to the controls)” value in experiment [1] is recorded as “NO INHIBITION”. The “Liver Mean (mean percent inhibition relative to the controls)” value in experiment [2] is reported as 38%. On the same counts, the results for `COP(=S)(Oc1cc(Cl)c(Br)cc1Cl)c1ccccc1` (centres unmarked) [Leptophos] are 29% and 60%. The corresponding values for `CCOC(=O)CC(SP(=O)(OC)OC)C(=O)OCC` (centres unmarked) [Malaoxon] are 51% and 87%. The corresponding values for `COc1nn(CSP(=S)(OC)OC)c(=O)s1` [Methidathion] are 56% and 78%. Regarding `COP(=S)(OC)Oc1ccc(C#N)cc1` [Cyanophos], the “Brain Mean (mean percent inhibition relative to the controls)” value in experiment [1] stood at 65%. For the same molecule, in experiment [2], the “Liver Mean (mean percent inhibition relative to the controls)” value turned out to be 89%. The corresponding values for Trichlorfon are 100% and 91%. The corresponding values for `COP(=S)(OC)Oc1ccc(S(=O)(=O)N(C)C)cc1` [Famphur] are 60% and 71%. On the same counts, the results for `CCCSP(=O)(OCC)Oc1ccc(Br)cc1Cl` (centres unmarked) [Profenofos] are 81% and 97%. On to `CCOP(=O)(N=C1SCC(C)S1)OCC` (centres unmarked) [Mephosfolan], for which the “Liver Mean (mean percent inhibition relative to the controls)” value in experiment [2] worked out at 100%.

As for `CCOP(=S)(OCC)SC(CCl)N1C(=O)c2ccccc2C1=O` (centres unmarked) [Dialifos], the “Brain Mean (mean percent inhibition relative to the controls)” value in experiment [1] is on record as 52%. In addition, the “Liver Mean (mean percent inhibition relative to the controls)” value in experiment [2] worked out at 96%. In the case of `CCOP(=S)(OCC)Oc1cc(Cl)c(SC)cc1Cl` [Chlorthiophos], the “Brain Mean (mean percent inhibition relative to the controls)” value in experiment [1] is 22%. Further, in experiment [2], the “Liver Mean (mean percent inhibition relative to the controls)” value is reported as 52%.

For the molecule `CCOc1cc(OP(=S)(OC)OC)nc(CC)n1` [Etrimfos], in experiment [1], the “Brain Mean (mean percent inhibition relative to the controls)” value is 78%. For the same molecule, the “Liver Mean (mean percent inhibition relative to the controls)” value in experiment [2] is given as 100%.

Take Acephate: the “Brain Mean (mean percent inhibition relative to the controls)” value in experiment [1] amounted to 50%. For the same molecule, the “Liver Mean (mean percent inhibition relative to the controls)” value in experiment [2] is “NO INHIBITION”. On to `CCOP(=O)(NC(C)C)Oc1ccc(SC)c(C)c1` (centres unmarked) [Phenamiphos], for which the “Liver Mean (mean percent inhibition relative to the controls)” value in experiment [2] amounted to 92%.

For `CCOP(=S)(OCC)SCSP(=S)(OCC)OCC` [Ethion], the “Brain Mean (mean percent inhibition relative to the controls)” value in experiment [1] is “NO INHIBITION”. For the same molecule, in experiment [2], the “Liver Mean (mean percent inhibition relative to the controls)” value is on record as 92%.

For the molecule `COP(N)(=O)SC` (centres unmarked) [Methamidophos], the “Brain Mean (mean percent inhibition relative to the controls)” value in experiment [1] stood at 24%. For the same molecule, the “Liver Mean (mean percent inhibition relative to the controls)” value in experiment [2] worked out at 45%. As for Dicrotophos, the “Liver Mean (mean percent inhibition relative to the controls)” value in experiment [2] turned out to be 56%. Regarding `CCN(CC)C(=O)/C(Cl)=C(/C)OP(=O)(OC)OC` [Phosphamidon], in experiment [1], the “Brain Mean (mean percent inhibition relative to the controls)” value was 53%. Also, in experiment [2], the “Liver Mean (mean percent inhibition relative to the controls)” value is on record as 69%. On to `COP(=O)(OC)O/C(=C/Cl)c1cc(Cl)c(Cl)cc1Cl` [Tetrachlorvinphos], for which the “Brain Mean (mean percent inhibition relative to the controls)” value in experiment [1] was determined as 100%. Besides, the “Liver Mean (mean percent inhibition relative to the controls)” value in experiment [2] came to 91%.

On to `CNC(=O)CSP(=S)(OC)OC` [Dimethoate], for which the “Liver Mean (mean percent inhibition relative to the controls)” value in experiment [2] was found to be 12%. Turning to `COP(=S)(OC)Oc1ccc([N+](=O)[O-])cc1` [Methyl-Parathion], the “Brain Mean (mean percent inhibition relative to the controls)” value in experiment [1] came out at 75%. The “Liver Mean (mean percent inhibition relative to the controls)” value in experiment [2] came out at 100%. The corresponding values for `CNC(=O)CSP(=O)(OC)OC` [Omethoate] are 33% and 12%. On the same counts, the results for Heptenophos are 71% and 96%. For the molecule `CCCSP(=O)(OCC)Oc1cnn(-c2ccc(Cl)cc2)c1` (centres unmarked) [Pyraclofos], in experiment [1], the “Brain Mean (mean percent inhibition relative to the controls)” value came to 82%. Also, the “Liver Mean (mean percent inhibition relative to the controls)” value in experiment [2] amounted to 95%.

`CCOP(=S)(OCC)Oc1cc(C)nc(C(C)C)n1` [Diazinon]: the “Brain Mean (mean percent inhibition relative to the controls)” value in experiment [1] amounted to 31%. For the same molecule, the “Liver Mean (mean percent inhibition relative to the controls)” value in experiment [2] is 95%. With `CNP(=S)(OC)O/C(C)=C/C(=O)OC(C)C` (centres unmarked) [Safrotin], the “Brain Mean (mean percent inhibition relative to the controls)” value in experiment [1] is 52%. For the same molecule, in experiment [2], the “Liver Mean (mean percent inhibition relative to the controls)” value was 54%. For the molecule `CCOP(=S)(OCC)Oc1ccc(Cl)cc1Cl` [Dichlofenthion], the “Brain Mean (mean percent inhibition relative to the controls)” value in experiment [1] is given as “NO INHIBITION”. Also, the “Liver Mean (mean percent inhibition relative to the controls)” value in experiment [2] is listed as 56%. On the same counts, the results for `COP(=S)(Oc1ccc(C#N)cc1)c1ccccc1` (centres unmarked) [Cyamophenphos] are 52% and 53%. On the same counts, the results for `COC(=O)/C(C)=C/OP(=S)(OC)OC` [Methacrifos] are 61% and 87%.

For the molecule `COP(=S)(OC)Oc1ccc(Sc2ccc(OP(=S)(OC)OC)cc2)cc1` [Abate], the “Brain Mean (mean percent inhibition relative to the controls)” value in experiment [1] is reported as 59%. In addition, the “Liver Mean (mean percent inhibition relative to the controls)” value in experiment [2] is listed as 80%. On the same counts, the results for `CCOP(=S)(OCC)SCSc1ccc(Cl)cc1` [Carbophenothion] are 55% and 49%. Regarding Edifenphos, in experiment [1], the “Brain Mean (mean percent inhibition relative to the controls)” value worked out at 81%. In addition, the “Liver Mean (mean percent inhibition relative to the controls)” value in experiment [2] was 97%. The corresponding values for `CCSCCSP(=O)(OC)OC` [Demeton-S-M] are 31% and 12%. On the same counts, the results for `CCOP(=S)(OCC)Oc1ccc([S+](C)[O-])cc1` (centres unmarked) [Fensulfothion] are 100% and 100%. The corresponding values for `CCN(CC)c1nc(C)cc(OP(=S)(OC)OC)n1` [Pirimiphos-M] are 42% and 79%. Turning to `CCOP(=S)(OCC)SC1OCCOC1SP(=S)(OCC)OCC` (centres unmarked) [Dioxathion], in experiment [1], the “Brain Mean (mean percent inhibition relative to the controls)” value came to 15%. For the same molecule, the “Liver Mean (mean percent inhibition relative to the controls)” value in experiment [2] is 57%. Regarding `CCOP(=S)(OCC)Oc1ccc2c(C)c(Cl)c(=O)oc2c1` [Coumaphos], in experiment [1], the “Brain Mean (mean percent inhibition relative to the controls)” value was 62%. In addition, the “Liver Mean (mean percent inhibition relative to the controls)” value in experiment [2] stood at 46%. Regarding `CNC(=O)C(C)SCCSP(=O)(OC)OC` (centres unmarked) [Vamidothion], the “Liver Mean (mean percent inhibition relative to the controls)” value in experiment [2] was 55%.
